This note sets out measurements from patent publication US11572590B2, “Methods for evaluating tumor cell spheroids using 3D microfluidic cell culture device” (Dana-Farber Cancer Institute, Inc., priority 2017, dated 2023).

Like-named read-outs stand apart in the source and are kept apart here.

Common to all, as to experiment: SelectScreen Kinase Profiling, single point inhibition and IC50 for off-target kinases
What all share (format): biochemical

Experiment [1] concerns the target T1, off-target kinases (Homo sapiens, UniProt P21709).
T1 sequence (P21709 26-976): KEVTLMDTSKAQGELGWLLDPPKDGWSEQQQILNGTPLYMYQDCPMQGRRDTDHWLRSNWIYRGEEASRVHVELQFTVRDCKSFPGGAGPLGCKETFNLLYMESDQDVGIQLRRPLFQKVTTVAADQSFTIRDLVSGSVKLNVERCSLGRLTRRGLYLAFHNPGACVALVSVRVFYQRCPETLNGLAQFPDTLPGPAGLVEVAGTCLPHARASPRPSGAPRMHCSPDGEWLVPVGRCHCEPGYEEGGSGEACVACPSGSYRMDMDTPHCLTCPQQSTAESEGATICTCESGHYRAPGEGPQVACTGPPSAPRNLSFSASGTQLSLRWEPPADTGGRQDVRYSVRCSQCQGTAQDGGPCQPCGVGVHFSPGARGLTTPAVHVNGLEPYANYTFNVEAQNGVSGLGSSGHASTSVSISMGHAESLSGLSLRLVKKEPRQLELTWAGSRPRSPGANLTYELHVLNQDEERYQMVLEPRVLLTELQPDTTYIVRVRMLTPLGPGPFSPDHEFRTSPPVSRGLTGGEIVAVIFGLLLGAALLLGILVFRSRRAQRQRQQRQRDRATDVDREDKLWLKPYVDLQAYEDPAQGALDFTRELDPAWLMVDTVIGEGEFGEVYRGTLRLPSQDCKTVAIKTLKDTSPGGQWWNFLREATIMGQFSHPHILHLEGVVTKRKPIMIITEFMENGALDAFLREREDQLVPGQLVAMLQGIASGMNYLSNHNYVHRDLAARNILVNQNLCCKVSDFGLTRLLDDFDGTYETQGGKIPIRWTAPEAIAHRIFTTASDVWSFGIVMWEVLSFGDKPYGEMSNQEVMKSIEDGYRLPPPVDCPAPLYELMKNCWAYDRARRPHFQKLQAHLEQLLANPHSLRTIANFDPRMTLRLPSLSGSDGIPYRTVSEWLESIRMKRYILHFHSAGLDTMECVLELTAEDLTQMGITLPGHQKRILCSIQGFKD
The following applies: EPHA1, ZLYTE, ATP Km app.

In experiment [2] the target is T2, off-target kinases (Homo sapiens, UniProt Q08881).
T2 sequence (Q08881 1-620): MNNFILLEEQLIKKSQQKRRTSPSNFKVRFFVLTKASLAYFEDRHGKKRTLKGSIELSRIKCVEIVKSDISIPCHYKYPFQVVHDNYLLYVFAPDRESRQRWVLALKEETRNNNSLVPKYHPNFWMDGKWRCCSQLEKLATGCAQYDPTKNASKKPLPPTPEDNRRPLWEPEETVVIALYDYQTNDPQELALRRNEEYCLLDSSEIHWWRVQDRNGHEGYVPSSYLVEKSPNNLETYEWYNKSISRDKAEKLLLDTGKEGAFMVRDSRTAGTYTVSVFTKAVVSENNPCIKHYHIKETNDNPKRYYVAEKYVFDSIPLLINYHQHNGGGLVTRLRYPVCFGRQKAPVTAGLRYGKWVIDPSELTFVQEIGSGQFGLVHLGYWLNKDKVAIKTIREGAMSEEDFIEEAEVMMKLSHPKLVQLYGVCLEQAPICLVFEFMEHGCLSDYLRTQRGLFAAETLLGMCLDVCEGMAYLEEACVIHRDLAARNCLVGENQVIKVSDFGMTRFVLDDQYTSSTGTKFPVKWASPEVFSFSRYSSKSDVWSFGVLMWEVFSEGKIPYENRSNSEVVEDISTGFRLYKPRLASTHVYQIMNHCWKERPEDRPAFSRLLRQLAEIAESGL
The note with it: ITK, ZLYTE, ATP Km app.

Experiment [3] has as its target off-target kinases (Homo sapiens, UniProt Q5S007, I2020T). The note with it: LRRK2 I2020T, ATP Km app, Adapta.
In experiment [4] the target is off-target kinases (Homo sapiens, UniProt Q8TDX7). The following applies: NEK7, ZLYTE, ATP Km app.
Sequence of off-target kinases (Homo sapiens, UniProt Q8TDX7) (Q8TDX7 whole entry): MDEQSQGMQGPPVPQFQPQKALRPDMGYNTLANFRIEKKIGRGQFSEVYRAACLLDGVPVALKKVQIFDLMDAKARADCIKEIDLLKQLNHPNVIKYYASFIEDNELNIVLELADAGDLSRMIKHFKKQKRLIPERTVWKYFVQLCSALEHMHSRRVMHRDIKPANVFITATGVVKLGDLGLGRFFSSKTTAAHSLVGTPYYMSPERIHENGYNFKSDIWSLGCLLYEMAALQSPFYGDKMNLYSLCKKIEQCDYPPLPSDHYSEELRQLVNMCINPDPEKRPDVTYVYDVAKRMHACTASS

Sequence of off-target kinases (Homo sapiens, UniProt Q5S007, I2020T) (Q5S007 whole entry I2020T): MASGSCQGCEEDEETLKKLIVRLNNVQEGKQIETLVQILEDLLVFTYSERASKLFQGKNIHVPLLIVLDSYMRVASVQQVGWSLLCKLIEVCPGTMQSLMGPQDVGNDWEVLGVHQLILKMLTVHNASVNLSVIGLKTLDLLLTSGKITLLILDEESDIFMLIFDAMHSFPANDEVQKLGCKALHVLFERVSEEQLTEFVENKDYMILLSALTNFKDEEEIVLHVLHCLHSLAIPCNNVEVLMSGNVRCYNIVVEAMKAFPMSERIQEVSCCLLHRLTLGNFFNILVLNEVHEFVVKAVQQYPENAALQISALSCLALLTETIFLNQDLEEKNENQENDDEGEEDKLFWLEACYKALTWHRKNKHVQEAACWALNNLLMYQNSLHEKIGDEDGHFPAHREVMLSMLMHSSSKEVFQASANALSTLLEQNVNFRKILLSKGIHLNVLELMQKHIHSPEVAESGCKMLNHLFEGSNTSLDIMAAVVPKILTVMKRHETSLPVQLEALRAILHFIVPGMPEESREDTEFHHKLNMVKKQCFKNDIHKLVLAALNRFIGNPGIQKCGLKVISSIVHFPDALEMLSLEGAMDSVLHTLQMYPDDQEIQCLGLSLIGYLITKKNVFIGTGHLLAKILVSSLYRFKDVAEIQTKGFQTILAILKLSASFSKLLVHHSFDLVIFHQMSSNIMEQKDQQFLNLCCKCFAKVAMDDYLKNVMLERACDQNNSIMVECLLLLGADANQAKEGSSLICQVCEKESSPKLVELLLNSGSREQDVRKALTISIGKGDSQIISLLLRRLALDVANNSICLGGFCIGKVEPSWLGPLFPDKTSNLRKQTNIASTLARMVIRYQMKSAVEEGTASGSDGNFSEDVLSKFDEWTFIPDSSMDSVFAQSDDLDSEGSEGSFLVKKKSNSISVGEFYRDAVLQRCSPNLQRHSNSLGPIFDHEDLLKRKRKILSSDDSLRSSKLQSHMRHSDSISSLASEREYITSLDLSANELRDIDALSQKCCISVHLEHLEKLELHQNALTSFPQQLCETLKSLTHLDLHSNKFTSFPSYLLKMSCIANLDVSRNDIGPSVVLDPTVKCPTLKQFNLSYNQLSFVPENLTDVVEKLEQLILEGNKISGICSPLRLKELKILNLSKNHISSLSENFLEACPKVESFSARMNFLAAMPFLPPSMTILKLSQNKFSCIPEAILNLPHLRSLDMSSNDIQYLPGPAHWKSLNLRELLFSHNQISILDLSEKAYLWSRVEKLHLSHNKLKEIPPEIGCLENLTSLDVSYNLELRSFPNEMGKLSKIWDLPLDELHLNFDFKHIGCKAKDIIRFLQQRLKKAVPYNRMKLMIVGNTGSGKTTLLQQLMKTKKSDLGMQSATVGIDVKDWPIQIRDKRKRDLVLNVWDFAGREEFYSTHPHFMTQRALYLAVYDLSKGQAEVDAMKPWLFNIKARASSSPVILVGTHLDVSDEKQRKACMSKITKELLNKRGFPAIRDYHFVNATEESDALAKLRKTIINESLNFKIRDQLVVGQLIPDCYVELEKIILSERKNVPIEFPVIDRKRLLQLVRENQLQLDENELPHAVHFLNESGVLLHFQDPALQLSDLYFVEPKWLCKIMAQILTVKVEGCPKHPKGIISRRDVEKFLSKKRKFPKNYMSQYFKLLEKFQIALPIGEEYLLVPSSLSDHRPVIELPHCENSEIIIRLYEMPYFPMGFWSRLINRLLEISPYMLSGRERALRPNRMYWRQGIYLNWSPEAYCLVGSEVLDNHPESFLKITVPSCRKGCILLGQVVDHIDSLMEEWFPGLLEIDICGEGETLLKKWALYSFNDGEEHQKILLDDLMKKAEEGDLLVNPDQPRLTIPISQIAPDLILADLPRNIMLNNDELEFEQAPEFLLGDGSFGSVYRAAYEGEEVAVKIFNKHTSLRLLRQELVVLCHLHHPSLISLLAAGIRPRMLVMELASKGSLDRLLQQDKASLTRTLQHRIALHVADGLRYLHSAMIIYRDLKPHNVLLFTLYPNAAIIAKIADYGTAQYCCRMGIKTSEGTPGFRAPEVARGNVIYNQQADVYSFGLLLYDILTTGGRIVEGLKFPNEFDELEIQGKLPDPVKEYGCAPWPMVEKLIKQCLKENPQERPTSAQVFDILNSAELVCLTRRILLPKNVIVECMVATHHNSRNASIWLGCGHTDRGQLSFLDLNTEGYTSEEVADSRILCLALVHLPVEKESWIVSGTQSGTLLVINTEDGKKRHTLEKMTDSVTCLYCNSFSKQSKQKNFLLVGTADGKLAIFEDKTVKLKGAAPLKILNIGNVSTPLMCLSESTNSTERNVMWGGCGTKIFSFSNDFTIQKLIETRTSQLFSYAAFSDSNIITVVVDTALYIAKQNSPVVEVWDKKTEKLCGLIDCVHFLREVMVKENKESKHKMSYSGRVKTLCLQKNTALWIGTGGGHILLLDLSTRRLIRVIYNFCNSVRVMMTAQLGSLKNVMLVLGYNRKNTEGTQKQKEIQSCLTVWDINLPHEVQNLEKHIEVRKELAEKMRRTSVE

`N#Cc1cc(-c2ncnc(Nc3ccc(N4CCN(C5COC5)CC4)cc3)n2)ccc1OC1CCOCC1` [Compound 1, 5-(4-((4-(4-(oxetan-3-yl)piperazin-1-yl)phenyl)amino)-1,3,5-triazin-2-yl)-2-((tetrahydro-2H-pyran-4-yl)oxy)benzonitrile]: the inhibition amounted to 29% at off-target kinases [1] (read-out: % Inhibition 1); 24% on off-target kinases [1] (read-out: % Inhibition 2); 27% on off-target kinases [1] (read-out: % Inhibition Avg); 37% on off-target kinases [2] (read-out: % Inhibition 1); 32% on off-target kinases [2] (read-out: % Inhibition 2); 34% at off-target kinases [2] (read-out: % Inhibition Avg). Further, the inhibition is 100% on off-target kinases [3] (read-out: % Inhibition 1); 98% on off-target kinases [3] (read-out: % Inhibition 2); 99% on off-target kinases [3] (read-out: % Inhibition Avg); 5% at off-target kinases [4] (read-out: % Inhibition 1); 2% at off-target kinases [4] (read-out: % Inhibition 2); 3% at off-target kinases [4] (read-out: % Inhibition Avg).

The term inhibition denotes how much of the control response was suppressed.
